# In PubChem BioAssay AID2060616 (Molecular Pharmacology Branch, DTP, NCI, 2025):
# Test system: 377384-186-R-J1-PDC complex spheroid viability
# Assay: Anticancer human tumor 377384-186-R-J1-PDC patient-derived pancreatic carcinoma cell line growth inhibition [CLK]
# Settings: for IC50: curve of first compound; for viability, T/C: stronger effect = lower value
# How it was run: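 Patient-derived tumor cells grown as complex spheroids with HUVEC endothelial cells and mesenchymal stem cells, treated with drug combinations. Concentrations descend in half-log steps from near clinical Cmax, or from 10 microM if Cmax unknown.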
# [1] = second compound 0.0316 µM, first compound 0.00949 µM
# [2] = second compound 0.0316 µM, first compound 0.03 µM
# [3] = second compound 0.0316 µM, first compound 0.0949 µM
# [4] = second compound 0.0316 µM, first compound 0.3 µM
# [5] = second compound 0.1 µM, first compound 0.00949 µM
# [6] = second compound 0.1 µM, first compound 0.03 µM
# [7] = second compound 0.1 µM, first compound 0.0949 µM
# [8] = second compound 0.1 µM, first compound 0.3 µM
# [9] = second compound 0.316 µM, first compound 0.00949 µM
# [10] = second compound 0.316 µM, first compound 0.03 µM
# [11] = second compound 0.316 µM, first compound 0.0949 µM
# [12] = second compound 0.316 µM, first compound 0.3 µM
# [13] = second compound 1 µM, first compound 0.00949 µM
# [14] = second compound 1 µM, first compound 0.03 µM
# [15] = second compound 1 µM, first compound 0.0949 µM
# [16] = second compound 1 µM, first compound 0.3 µM
# [17] = second compound 3.16 µM, first compound 0.00949 µM
# [18] = second compound 3.16 µM, first compound 0.03 µM
# [19] = second compound 3.16 µM, first compound 0.0949 µM
# [20] = second compound 3.16 µM, first compound 0.3 µM
# [21] = second compound 10 µM, first compound 0.00949 µM
# [22] = second compound 10 µM, first compound 0.03 µM
# [23] = second compound 10 µM, first compound 0.0949 µM
# [24] = second compound 10 µM, first compound 0.3 µM
# [25] = second compound 0.0316 µM, first compound 0.0316 µM
# [26] = second compound 0.0316 µM, first compound 0.1 µM
# [27] = second compound 0.0316 µM, first compound 0.316 µM
# [28] = second compound 0.0316 µM, first compound 1 µM
# [29] = second compound 0.0316 µM, first compound 3.16 µM
# [30] = second compound 0.0316 µM, first compound 10 µM
# [31] = second compound 0.1 µM, first compound 0.0316 µM
# [32] = second compound 0.1 µM, first compound 0.1 µM
# [33] = second compound 0.1 µM, first compound 0.316 µM
# [34] = second compound 0.1 µM, first compound 1 µM
# [35] = second compound 0.1 µM, first compound 3.16 µM
# [36] = second compound 0.1 µM, first compound 10 µM
# [37] = second compound 0.316 µM, first compound 0.0316 µM
# [38] = second compound 0.316 µM, first compound 0.1 µM
# [39] = second compound 0.316 µM, first compound 0.316 µM
# [40] = second compound 0.316 µM, first compound 1 µM
# [41] = second compound 0.316 µM, first compound 3.16 µM
# [42] = second compound 0.316 µM, first compound 10 µM
# [43] = second compound 1 µM, first compound 0.0316 µM
# [44] = second compound 1 µM, first compound 0.1 µM
# [45] = second compound 1 µM, first compound 0.316 µM
# [46] = second compound 1 µM, first compound 1 µM
# [47] = second compound 1 µM, first compound 3.16 µM
# [48] = second compound 1 µM, first compound 10 µM
# [49] = second compound 3.16 µM, first compound 0.0316 µM
# [50] = second compound 3.16 µM, first compound 0.1 µM
# [51] = second compound 3.16 µM, first compound 0.316 µM
# [52] = second compound 3.16 µM, first compound 1 µM
# [53] = second compound 3.16 µM, first compound 3.16 µM
# [54] = second compound 3.16 µM, first compound 10 µM
# [55] = second compound 10 µM, first compound 0.0316 µM
# [56] = second compound 10 µM, first compound 0.1 µM
# [57] = second compound 10 µM, first compound 0.316 µM
# [58] = second compound 10 µM, first compound 1 µM
# [59] = second compound 10 µM, first compound 3.16 µM
# [60] = second compound 10 µM, first compound 10 µM
# 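Note: spheroids exposed to agents for 7 days before reading.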
# 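Throughout, for viability, T/C: luminescence signal used as a stand-in for viable cells.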
smiles,measurement,setting,value
CC(C)CC(NC(=O)C(Cc1ccccc1)NC(=O)c1cnccn1)B(O)O (stereo not drawn) + CNC(=O)c1ccc(Nc2nc(OC3CCCC3)c3c(-c4ccc5nc(C)oc5c4)c[nH]c3n2)c(OC)c1,IC50,second compound 0.0316 µM,1.41 nM
same,IC50,second compound 0.1 µM,< 0.949 nM
same,IC50,second compound 0.316 µM,< 0.949 nM
same,IC50,second compound 1 µM,< 0.949 nM
same,IC50,second compound 3.16 µM,< 0.949 nM
same,IC50,second compound 10 µM,< 0.949 nM
same,"viability, T/C","second compound 0.0316 µM, first compound 0.000949 µM",75.2%
same,"viability, T/C","second compound 0.0316 µM, first compound 0.003 µM",2.16%
same,"viability, T/C",[1],0.37%
same,"viability, T/C",[2],0.17%
same,"viability, T/C",[3],0.17%
same,"viability, T/C",[4],0.13%
same,"viability, T/C","second compound 0.1 µM, first compound 0.000949 µM",44%
same,"viability, T/C","second compound 0.1 µM, first compound 0.003 µM",1.4%
same,"viability, T/C",[5],0.25%
same,"viability, T/C",[6],0.15%
same,"viability, T/C",[7],0.13%
same,"viability, T/C",[8],0.15%
same,"viability, T/C","second compound 0.316 µM, first compound 0.000949 µM",21.4%
same,"viability, T/C","second compound 0.316 µM, first compound 0.003 µM",0.99%
same,"viability, T/C",[9],0.18%
same,"viability, T/C",[10],0.14%
same,"viability, T/C",[11],0.15%
same,"viability, T/C",[12],1.69%
same,"viability, T/C","second compound 1 µM, first compound 0.000949 µM",17.2%
same,"viability, T/C","second compound 1 µM, first compound 0.003 µM",0.98%
same,"viability, T/C",[13],0.28%
same,"viability, T/C",[14],0.24%
same,"viability, T/C",[15],0.51%
same,"viability, T/C",[16],0.35%
same,"viability, T/C","second compound 3.16 µM, first compound 0.000949 µM",14.8%
same,"viability, T/C","second compound 3.16 µM, first compound 0.003 µM",0.96%
same,"viability, T/C",[17],0.36%
same,"viability, T/C",[18],0.23%
same,"viability, T/C",[19],0.31%
same,"viability, T/C",[20],0.21%
same,"viability, T/C","second compound 10 µM, first compound 0.000949 µM",14.3%
same,"viability, T/C","second compound 10 µM, first compound 0.003 µM",0.81%
same,"viability, T/C",[21],0.71%
same,"viability, T/C",[22],0.24%
same,"viability, T/C",[23],0.62%
same,"viability, T/C",[24],0.3%
CC1(C)CCC(CN2CCN(c3ccc(C(=O)NS(=O)(=O)c4ccc(NCC5CCOCC5)c([N+](=O)[O-])c4)c(Oc4cnc5[nH]ccc5c4)c3)CC2)=C(c2ccc(Cl)cc2)C1 + CNC(=O)c1ccc(Nc2nc(OC3CCCC3)c3c(-c4ccc5nc(C)oc5c4)c[nH]c3n2)c(OC)c1,IC50,second compound 0.0316 µM,> 10000 nM
same,IC50,second compound 0.1 µM,> 10000 nM
same,IC50,second compound 0.316 µM,< 31.6 nM
same,IC50,second compound 1 µM,< 31.6 nM
same,IC50,second compound 3.16 µM,< 31.6 nM
same,IC50,second compound 10 µM,< 31.6 nM
same,"viability, T/C",[25],105%
same,"viability, T/C",[26],93.2%
same,"viability, T/C",[27],96.9%
same,"viability, T/C",[28],109%
same,"viability, T/C",[29],82.1%
same,"viability, T/C",[30],104%
same,"viability, T/C",[31],59.8%
same,"viability, T/C",[32],57.4%
same,"viability, T/C",[33],49.3%
same,"viability, T/C",[34],56.6%
same,"viability, T/C",[35],36.4%
same,"viability, T/C",[36],59.8%
same,"viability, T/C",[37],20.4%
same,"viability, T/C",[38],21.6%
same,"viability, T/C",[39],19.7%
same,"viability, T/C",[40],19%
same,"viability, T/C",[41],17.6%
same,"viability, T/C",[42],21.1%
same,"viability, T/C",[43],23.3%
same,"viability, T/C",[44],22.5%
same,"viability, T/C",[45],18.2%
same,"viability, T/C",[46],19.1%
same,"viability, T/C",[47],19.3%
same,"viability, T/C",[48],21.6%
same,"viability, T/C",[49],20.2%
same,"viability, T/C",[50],20.7%
same,"viability, T/C",[51],20%
same,"viability, T/C",[52],18.8%
same,"viability, T/C",[53],21.9%
same,"viability, T/C",[54],20.9%
same,"viability, T/C",[55],20.2%
same,"viability, T/C",[56],21.6%
same,"viability, T/C",[57],21.2%
same,"viability, T/C",[58],20.1%
same,"viability, T/C",[59],19.2%
same,"viability, T/C",[60],21.3%
CC1COCCN1c1cc(C2(S(C)(=N)=O)CC2)nc(-c2ccnc3[nH]ccc23)n1 (stereo not drawn) + CNC(=O)c1ccc(Nc2nc(OC3CCCC3)c3c(-c4ccc5nc(C)oc5c4)c[nH]c3n2)c(OC)c1,IC50,second compound 0.0316 µM,2600 nM
same,IC50,second compound 0.1 µM,232 nM
same,IC50,second compound 0.316 µM,< 31.6 nM
same,IC50,second compound 1 µM,< 31.6 nM
same,IC50,second compound 3.16 µM,< 31.6 nM
same,IC50,second compound 10 µM,< 31.6 nM
same,"viability, T/C",[25],105%
same,"viability, T/C",[26],110%
same,"viability, T/C",[27],106%
same,"viability, T/C",[28],83.5%
same,"viability, T/C",[29],43.5%
same,"viability, T/C",[30],17.4%
same,"viability, T/C",[31],62.4%
same,"viability, T/C",[32],56.8%
same,"viability, T/C",[33],52%
same,"viability, T/C",[34],41.1%
same,"viability, T/C",[35],23.7%
same,"viability, T/C",[36],19.9%
same,"viability, T/C",[37],21.3%
same,"viability, T/C",[38],23.4%
same,"viability, T/C",[39],18.6%
same,"viability, T/C",[40],16.9%
same,"viability, T/C",[41],13.8%
same,"viability, T/C",[42],9.16%
same,"viability, T/C",[43],20.6%
same,"viability, T/C",[44],20.9%
same,"viability, T/C",[45],22.3%
same,"viability, T/C",[46],17.9%
same,"viability, T/C",[47],12%
same,"viability, T/C",[48],7.93%
same,"viability, T/C",[49],20.2%
same,"viability, T/C",[50],21.2%
same,"viability, T/C",[51],20.6%
same,"viability, T/C",[52],18.9%
same,"viability, T/C",[53],14.1%
same,"viability, T/C",[54],9.68%
same,"viability, T/C",[55],20.4%
same,"viability, T/C",[56],19%
same,"viability, T/C",[57],21.5%
same,"viability, T/C",[58],19.4%
same,"viability, T/C",[59],12.4%
same,"viability, T/C",[60],9.21%
NC(=O)C(=Cn1cnc(-c2cc(C(F)(F)F)cc(C(F)(F)F)c2)n1)c1cncnc1 + CNC(=O)c1ccc(Nc2nc(OC3CCCC3)c3c(-c4ccc5nc(C)oc5c4)c[nH]c3n2)c(OC)c1,IC50,second compound 0.0316 µM,52.6 nM
same,IC50,second compound 0.1 µM,12.3 nM
same,IC50,second compound 0.316 µM,< 9.49 nM
same,IC50,second compound 1 µM,< 9.49 nM
same,IC50,second compound 3.16 µM,< 9.49 nM
same,IC50,second compound 10 µM,< 9.49 nM
same,"viability, T/C",[1],97.1%
same,"viability, T/C",[2],59.2%
same,"viability, T/C",[3],40.4%
same,"viability, T/C",[4],21.2%
same,"viability, T/C","second compound 0.0316 µM, first compound 0.949 µM",5.59%
same,"viability, T/C","second compound 0.0316 µM, first compound 3 µM",2.3%
same,"viability, T/C",[5],52.9%
same,"viability, T/C",[6],39.7%
same,"viability, T/C",[7],25.5%
same,"viability, T/C",[8],16.1%
same,"viability, T/C","second compound 0.1 µM, first compound 0.949 µM",3.56%
same,"viability, T/C","second compound 0.1 µM, first compound 3 µM",1.95%
same,"viability, T/C",[9],19.2%
same,"viability, T/C",[10],17.7%
same,"viability, T/C",[11],17.1%
same,"viability, T/C",[12],8.59%
same,"viability, T/C","second compound 0.316 µM, first compound 0.949 µM",2.04%
same,"viability, T/C","second compound 0.316 µM, first compound 3 µM",2.27%
same,"viability, T/C",[13],18.9%
same,"viability, T/C",[14],20.9%
same,"viability, T/C",[15],16.2%
same,"viability, T/C",[16],7.4%
same,"viability, T/C","second compound 1 µM, first compound 0.949 µM",1.54%
same,"viability, T/C","second compound 1 µM, first compound 3 µM",0.93%
same,"viability, T/C",[17],18.7%
same,"viability, T/C",[18],18.7%
same,"viability, T/C",[19],15.5%
same,"viability, T/C",[20],6.58%
same,"viability, T/C","second compound 3.16 µM, first compound 0.949 µM",1.89%
same,"viability, T/C","second compound 3.16 µM, first compound 3 µM",1.09%
same,"viability, T/C",[21],21.7%
same,"viability, T/C",[22],17.9%
same,"viability, T/C",[23],12.8%
same,"viability, T/C",[24],6.06%
same,"viability, T/C","second compound 10 µM, first compound 0.949 µM",1.42%
same,"viability, T/C","second compound 10 µM, first compound 3 µM",1.91%
